Test results: paper PMC10923054, “Antiplasmodial peptaibols act through membrane directed mechanisms” (Cell Chemical Biology, 2024)
Square brackets hold non-standard residues; d marks the D form. Peptide text beside a SMILES is read from it. Phe(ol) = N[C@H](CO)Cc1ccccc1; Leu(ol) = CC(C)C[C@H](N)CO; dIva = CC[C@@](C)(N)C(=O)O; Aib = CC(C)(N)C(=O)O

How the values were obtained:
[1] = tested on: P. falciparum asexual blood stage parasites grown in 10% human serum; test: Antiplasmodial activity with serum media; format: cell-based; details: RPMI with 10% human serum, maintained minimum 2 weeks; mean ± SEM from 3 biological replicates
Protocol: Asexual blood stage parasites grown in the Chakrabarti laboratory were cultured based on a protocol by Trager and Jensen[57] with some modifications.[35] […] For comparison screening using serum vs Albumax II, culture media was changed from RPMI with 0.5% Albumax II to RPMI with 10% human serum and maintained for a minimum of 2 weeks prior to assay use.
(§1) Inhibitor EC50 determination in 3D7 and Dd2 was performed as discussed in,[35] based on established protocols.[60] Assays utilized asynchronous culture at 1% parasitemia, 1% hematocrit. Culture was incubated with compound dilutions for 72 h followed by freezing at −80°C to promote lysis, then thawing and incubation for 45 min–1 h with 1× SYBR Green I in a lysis buffer (20 mM Tris-HCL, 0.08% saponin, 5 mM EDTA, and 0.8% Triton X-100). Fluorescence was read 485 nm excitation, 530 nm emission on a Synergy Neo2 multimode reader (BioTek Winsooki, VT) and EC50 curves were generated using CDD Vault (https://www.collaborativedrug.com/).

HepG2 cells = test: HepG2 cytotoxicity assay (MTS); format: cell-based, H. sapiens; details: for EC50: 48 h, MTS, absorbance 490 nm, highest concentration 25 μM, mean ± SEM, biological triplicate; for cytotoxicity in HepG2: highest concentration tested 25 μM
Protocol: HepG2 cells are grown at 37°C in DMEM with 10% FBS, 1% Antibiotic/Antimycotic, 0.3% NaHCO3, 5 mM HEPES pH 7.4, and 2 mM L-glutamine as needed in an atmosphere containing 5% CO2.
The cytotoxicity assay was performed as reported previously.[35] HepG2 cells were seeded at ∼2,250 cells per well 24 h prior to compound addition. Cells were then incubated for an additional 48 h prior to the addition of MTS and absorbance reading at 490 nm on Synergy Neo2 multimode reader (BioTek, Winsooki, VT). Cytotoxicity EC50 values were determined using CDD Vault (https://www.collaborativedrug.com/).

P. falciparum 3D7 = test: Phenotypic screen: asexual blood stage EC50 determination (SYBR Green I); format: cell-based; details: CQ sensitive line, asynchronous culture, 72 h, mean ± SEM, biological triplicate
Protocol: Asexual blood stage parasites grown in the Chakrabarti laboratory were cultured based on a protocol by Trager and Jensen[57] with some modifications.[35] Culture was maintained at 4% hematocrit with human A+ whole blood obtained from the Florida OneBlood, in RPMI 1640 supplemented with 25 mM HEPES pH 7.4, 26 mM NaHCO3, 2% dextrose, 15 mg/L hypoxanthine, 25 mg/L gentamycin, and 0.5% Albumax II. Incubator conditions remained at 37°C and 5% CO2, 5% O2, 90% N2, or 95% air. For comparison screening using serum vs Albumax II, culture media was changed from RPMI with 0.5% Albumax II to RPMI with 10% human serum and maintained for a minimum of 2 weeks prior to assay use.
as §1

[2] = tested on: synchronized Dd2 parasites; test: Synchronous stage specificity assay (SSA); format: cell-based, P. falciparum; details: for stage of parasite arrest when added at 6 HPI: 5 x EC50 (TC HA-II 3 x EC50), Giemsa and YOYO-1 flow cytometry; for Stage of Inhibition: Figure 7A summary
Protocol: SSA was performed in triplicate as previously described.[64] In summary, Dd2 culture was synchronized by combination of MACS column[65] and sorbitol treatment,[66] and cultured at 1% parasitemia, 2% hematocrit, for 54 h. Compound was added at approximately 6, 18, 30, or 42 HPI, and samples were taken every 12 h after treatment times for Giemsa staining and flow cytometric analysis. HZ NPDG-H and HZ NPDG-I were tested at 5 x EC50, TC HA-II tested at 3 x EC50 due to its higher hemolytic potential. All test values above EC90. Flow samples were fixed in 4% paraformaldehyde, incubated for 30 min at 37°C, then washed 3 times in PBS. Fixed samples were stored at 4°C prior to staining, then resuspended in 0.25% Trition X-100 and incubated for 10 min with shaking. Permeabilized samples were centrifuged and resuspended in a 50 μg/mL RNase solution, and incubated for 3 h at 37°C. After centrifugation, samples were resuspended in a YOYO-1 solution (500 nM final concentration) and read on a CytoFLEX S (Beckman Coulter, Brea, CA) at 488 nm excitation, with 100,000–500,000 events recorded per sample. Infected RBCs were gated using an uninfected RBC control in FlowJo version 10. After gating populations, FITC channel values were extracted from FlowJo and the sum total fluorescence of the iRBCs and the median fluorescence for each timepoint were graphed in Graph Pad Prism Version 9. Assay workflow outline was created using BioRender.

asynchronous Dd2 culture = test: Killing profile (flow cytometry, SYBR Green I / Mitotracker Deep Red FM); format: cell-based, P. falciparum; details: for Killing Profile: 10 x EC50
Protocol: Killing profile analyses were performed as previously described,[64] in asynchronous Dd2 culture, starting at approximately 1% parasitemia, 4% hematocrit. Compound was added to culture in majority ring stage and incubated for 12, 24, or 48 h prior to washing and sample collection. Media were then changed normally every 24 h for 6 days. Samples taken each day were used for Giemsa thin smears, and flow cytometric analysis to monitor parasitemia and mitotracker retention. For staining, samples were incubated in a solution of 1:1000 SYBR Green I and 0.6 μM Mitotracker Deep red FM for 30 min then read on a CytoFLEX S (Beckman Coulter, Brea, CA), with 100,000 events recorded per sample. Flow cytometry was gated in FlowJo Version 10 using DHA, vehicle, no Mitotracker, and uninfected RBC controls. Assay workflow outline was created using BioRender.

[3] = tested on: P. berghei liver stage parasites in HepG2 cells; test: High content imaging P. berghei liver stage assay (luciferase 48 HPI, MSP1/AMA1 72 HPI, HepG2 area); format: cell-based; details: for Liver stage inhibition: Figure 7A summary
Protocol: HepG2 cells infected with luciferase-expressing P. berghei sporozoites were seeded onto compound-loaded 384-well plates 2 hours after sporozoite addition. A live luciferase readout at 48 HPI[62] quantifies compound activity against parasite biomass, while HCI of MSP1 and AMA1 expression at 72 HPI quantifies effects on liver stage maturation and hepatic merozoite formation. Compound effects on hepatocytes are assessed based on HepG2 area occupied in the 72 HPI HCI assay. All data are normalized to in-plate DMSO controls.

[4] = 10 x EC50, monitored for 6 days, 3 biological replicates

Compound	EC50 [1] [nM]	EC50 (HepG2 cells) [nM]	cytotoxicity in HepG2 (HepG2 cells)	EC50 (P. falciparum 3D7) [nM]	stage of parasite arrest when added at 6 HPI [2]	Stage of Inhibition [2]	Killing Profile (asynchronous Dd2 culture)	parasitemia after 12 h incubation and washout (asynchronous Dd2 culture; [4])	parasitemia after 48 h incubation and washout (asynchronous Dd2 culture; [4])	Killing Profile (asynchronous Dd2 culture; listed as Harzianin NPDG H)	Liver stage inhibition [3]	luciferase inhibition at 48 HPI (liver stage HCI) ([3]; tested at 5 and 0.5 μM)
CC[C@H](C)[C@H](NC(=O)[C@H](C)NC(=O)[C@@H]1CCCN1C(=O)C(C)(C)NC(=O)[C@H](CC(C)C)NC(=O)[C@H](CCC(N)=O)NC(=O)[C@@](C)(CC)NC(C)=O)C(=O)NC(C)(C)C(=O)N1CCC[C@H]1C(=O)N[C@](C)(CC)C(=O)N[C@@H](CC(C)C)C(=O)NC(C)(C)C(=O)N1CCC[C@H]1C(=O)N[C@H](CO)CC(C)C [HZ NPDG-H, harzianin NPDG H] (Ac-[dIva]QL[Aib]PAI[Aib]P[dIva]L[Aib]P[Leu(ol)])	690 ± 90	> 25000	no cytotoxicity	120 ± 10	late trophozoite to early schizont stage	Schizont	cytostatic	recovered by day 3	increase in parasitemia at day 5	Slow	Maturation only	
CC[C@@](C)(NC(=O)C(C)(C)NC(=O)[C@H](CC(C)C)NC(=O)[C@@H]1CCCN1C(=O)C(C)(C)NC(=O)[C@H](CC(C)C)NC(=O)CNC(=O)C(C)(C)NC(=O)[C@@H](NC(=O)C(C)(C)NC(=O)[C@H](CCC(N)=O)NC(=O)C(C)(C)NC(=O)C(C)(C)NC(=O)[C@H](C)NC(=O)CNC(=O)C(C)(C)NC(C)=O)C(C)C)C(=O)N[C@@H](CCC(N)=O)C(=O)N[C@H](CO)CC(C)C [TC HA-II, trichorzin HA II] (Ac-[Aib]GA[Aib][Aib]Q[Aib]V[Aib]GL[Aib]PL[Aib][dIva]Q[Leu(ol)])	2200 ± 270	13000 ± 2000	Minor cytotoxicity	390 ± 90	early arrest with a condensed permatroph morphology	Ring	Rapid	inhibit parasitemia for all 6 days			Maturation and replication	showed luciferase inhibition
CC(=O)NC(C)(C)C(=O)N1CCC[C@H]1C(=O)NC(C)(C)C(=O)N[C@@H](C)C(=O)NC(C)(C)C(=O)N[C@@H](C)C(=O)N[C@@H](CCC(N)=O)C(=O)NC(C)(C)C(=O)N[C@H](C(=O)NC(C)(C)C(=O)NCC(=O)N[C@@H](CC(C)C)C(=O)NC(C)(C)C(=O)N1CCC[C@H]1C(=O)N[C@H](C(=O)NC(C)(C)C(=O)NC(C)(C)C(=O)N[C@@H](CCC(=O)O)C(=O)N[C@@H](CCC(N)=O)C(=O)N[C@H](CO)Cc1ccccc1)C(C)C)C(C)C [Alamethicin, reference compound] (Ac-[Aib]P[Aib]A[Aib]AQ[Aib]V[Aib]GL[Aib]PV[Aib][Aib]EQ[Phe(ol)]; N-terminus assumed)		6600 ± 100	Minor cytotoxicity	540 ± 30								
CC[C@H](C)[C@H](NC(=O)[C@H](CC(C)C)NC(=O)[C@H](CCC(N)=O)NC(=O)[C@@](C)(CC)NC(C)=O)C(=O)NC(C)(C)C(=O)N1CCC[C@H]1C(=O)N[C@](C)(CC)C(=O)N[C@@H](CC(C)C)C(=O)NC(C)(C)C(=O)N1CCC[C@H]1C(=O)N[C@H](CO)CC(C)C [HZ NPDG-I, harzianin NPDG I] (Ac-[dIva]QLI[Aib]P[dIva]L[Aib]P[Leu(ol)])	260 ± 30	> 25000	no cytotoxicity	120 ± 10	arrest parasite development in early ring	Ring	Rapid	inhibit parasitemia for all 6 days			Maturation only	
